Laboratory results published in patent US7135548B2, “Modified α-MSH peptides and derivatives thereof” (Zengen, Inc., priority 2002, dated 2006).
Entries after “also recorded” stand apart in the source; their conditions may differ. Square brackets hold non-standard residues; d marks the D form. Ends that are not written are not given here. dNal = D-naphthylalanine (D-Nal)

Assays:
[1] = system: Candida albicans; experiment: Inhibition of Candida albicans colony formation (viability estimated from colonies formed); format: cell-based; details: for % Inhib. (inhibitory effect on Candida Albicans): clinical isolates, 1×10^6/ml in HBSS, two hours at 37° C. with peptide, colonies counted after 48 hours, peptide concentration for the table not given (range tested 10^−15 to 10^−4 M); for antimicrobial activity toward Candida albicans (result in words): Table 1 / FIG. 1
Experimental: Clinical isolates of C. albicans were also obtained from the collection of the Department of Microbiology, Ospedale Maggiore di Milano. Cultures of C. albicans were maintained on Sabouraud's agar slants and periodically transferred to Sabouraud's agar plates and incubated for 48 hours at 28° C. To prepare stationary growth-phase yeast, a colony may be taken from the agar plate, transferred into 30 ml of Sabouraud-dextrose broth, and incubated for 72 hours at 32° C. Cells were centrifuged at 1000×g for ten minutes, and the pellet may be washed twice with distilled water. Cells were counted and suspended in Hank's balanced salt solution (“HBSS”) to the desired concentration. Viability, determined by exclusion of 0.01% methylene blue, remained greater than 98%.
At 1×10^6/ml in HBSS, these fungi were incubated in the presence or absence of modified α-MSH peptides at concentrations ranging from 10^−15 to 10^−4 M for two hours at 37° C. Cells were then washed in cold distilled water and diluted with HBSS to a concentration of 100 organisms/ml. One-milliliter aliquots were then dispensed on blood agar plates and incubated for 48 hours at 37° C. The organism's viability may be estimated from the number of colonies formed.

[2] = system: Candida albicans; details: comparison value, see U.S. patent application Ser. No. 09/535,066; cited from earlier work

Substance | % Inhib. (inhibitory effect on Candida Albicans) [1] | antimicrobial activity toward Candida albicans (result in words) [1] | inhibition of C. albicans colonies by naturally occurring α-MSH [2]
HFRWGAPV [SEQ. ID. NO. 18] | 26.2% |  | 
HFRWGKAV [SEQ. ID. NO. 19] | 12.8% |  | 
HFRWGKDV [SEQ. ID. NO. 38] | 5.9% |  | 
HFRWGKEV [SEQ. ID. NO. 42] | 11.2% |  | 
HFRWGKFV [SEQ. ID. NO. 32] | 90.0% |  | 
HFRWGKGV [SEQ. ID. NO. 28] | 41.8% |  | 
HFRWGKKV [SEQ. ID. NO. 44] | 41.0% |  | 
HFRWGKPA [SEQ. ID. NO. 20] | 68.4% |  | 
HFRWGKPL [SEQ. ID. NO. 24] | 86.6% |  | 
HFRWGKSV [SEQ. ID. NO. 30] | 32.3% | No substantial modification in activity | 
HFR[dW]GKPV [SEQ. ID. NO. 23] | 81.9% |  | 
H[dF]RWGK[dF]V [SEQ. ID. NO. 35] | 82.0% |  | 
His-DNal-Arg-Trp-Gly-Lys-Ala-Val (H[dNal]RWGKAV-OH) [SEQ. ID. NO. 26] | 28.0% |  | 
His-DNal-Arg-Trp-Gly-Lys-Asp-Val (H[dNal]RWGKDV-OH) [SEQ. ID. NO. 41] | 16.8% | decreased activity | 
His-DNal-Arg-Trp-Gly-Lys-DAla-Val (H[dNal]RWGK[dA]V-OH) [SEQ. ID. NO. 27] | 69.2% |  | 
His-DNal-Arg-Trp-Gly-Lys-DPhe-Val (H[dNal]RWGK[dF]V-OH) [SEQ. ID. NO. 37] | 57.6% | potent antimicrobial activity | 
His-DNal-Arg-Trp-Gly-Lys-Glu-Val (H[dNal]RWGKEV-OH) [SEQ. ID. NO. 43] | 32.3% | decreased activity | 
His-DNal-Arg-Trp-Gly-Lys-Gly-Val (H[dNal]RWGKGV-OH) [SEQ. ID. NO. 29] | 36.2% |  | 
His-DNal-Arg-Trp-Gly-Lys-Lys-Val (H[dNal]RWGKKV-OH) [SEQ. ID. NO. 45] | 85.4% |  | 
His-DNal-Arg-Trp-Gly-Lys-Phe-Val (H[dNal]RWGKFV-OH) [SEQ. ID. NO. 36] | 99.7% | potent antimicrobial activity; also recorded: remarkable anticandidacidal activity | 
His-DNal-Arg-Trp-Gly-Lys-Pro-Val (H[dNal]RWGKPV-OH) [SEQ. ID. NO. 22] | 95.3% | increased activity | 
His-DNal-Arg-Trp-Gly-Lys-Ser-Val (H[dNal]RWGKSV-OH) [SEQ. ID. NO. 31] | 73.9% | No substantial modification in activity | 
His-DPhe-Arg-Trp-Gly-Lys-Asp-Val (H[dF]RWGKDV-OH; N-terminus assumed; SMILES CC(C)[C@H](NC(=O)[C@H](CC(=O)O)NC(=O)[C@H](CCCCN)NC(=O)CNC(=O)[C@H](Cc1c[nH]c2ccccc12)NC(=O)[C@H](CCCNC(=N)N)NC(=O)[C@@H](Cc1ccccc1)NC(=O)[C@@H](N)Cc1c[nH]cn1)C(=O)O) [SEQ. ID. NO. 40] | 3.7% |  | 
His-DPhe-Arg-Trp-Gly-Lys-Phe-Val (H[dF]RWGKFV-OH; N-terminus assumed; SMILES CC(C)[C@H](NC(=O)[C@H](Cc1ccccc1)NC(=O)[C@H](CCCCN)NC(=O)CNC(=O)[C@H](Cc1c[nH]c2ccccc12)NC(=O)[C@H](CCCNC(=N)N)NC(=O)[C@@H](Cc1ccccc1)NC(=O)[C@@H](N)Cc1c[nH]cn1)C(=O)O) [SEQ. ID. NO. 34] | 89.6% |  | 
His-DPhe-Arg-Trp-Gly-Lys-Pro-Val (H[dF]RWGKPV-OH; N-terminus assumed; SMILES CC(C)[C@H](NC(=O)[C@@H]1CCCN1C(=O)[C@H](CCCCN)NC(=O)CNC(=O)[C@H](Cc1c[nH]c2ccccc12)NC(=O)[C@H](CCCNC(=N)N)NC(=O)[C@@H](Cc1ccccc1)NC(=O)[C@@H](N)Cc1c[nH]cn1)C(=O)O) [SEQ. ID. NO. 21] | 79.4% |  | 
His-Phe-Arg-Trp-Gly-Lys-DAla-Val (HFRWGK[dA]V-OH; N-terminus assumed; SMILES CC(C)[C@H](NC(=O)[C@@H](C)NC(=O)[C@H](CCCCN)NC(=O)CNC(=O)[C@H](Cc1c[nH]c2ccccc12)NC(=O)[C@H](CCCNC(=N)N)NC(=O)[C@H](Cc1ccccc1)NC(=O)[C@@H](N)Cc1c[nH]cn1)C(=O)O) [SEQ. ID. NO. 25] | 43.7% |  | 
His-Phe-Arg-Trp-Gly-Lys-DAsp-Val (HFRWGK[dD]V-OH; N-terminus assumed; SMILES CC(C)[C@H](NC(=O)[C@@H](CC(=O)O)NC(=O)[C@H](CCCCN)NC(=O)CNC(=O)[C@H](Cc1c[nH]c2ccccc12)NC(=O)[C@H](CCCNC(=N)N)NC(=O)[C@H](Cc1ccccc1)NC(=O)[C@@H](N)Cc1c[nH]cn1)C(=O)O) [SEQ. ID. NO. 39] | 15.7% |  | 
His-Phe-Arg-Trp-Gly-Lys-DPhe-Val (HFRWGK[dF]V-OH; N-terminus assumed; SMILES CC(C)[C@H](NC(=O)[C@@H](Cc1ccccc1)NC(=O)[C@H](CCCCN)NC(=O)CNC(=O)[C@H](Cc1c[nH]c2ccccc12)NC(=O)[C@H](CCCNC(=N)N)NC(=O)[C@H](Cc1ccccc1)NC(=O)[C@@H](N)Cc1c[nH]cn1)C(=O)O) [SEQ. ID. NO. 33] | 97.5% |  | 
His-Phe-Arg-Trp-Gly-Lys-Pro-DVal (HFRWGKP[dV]-OH; N-terminus assumed; SMILES CC(C)[C@@H](NC(=O)[C@@H]1CCCN1C(=O)[C@H](CCCCN)NC(=O)CNC(=O)[C@H](Cc1c[nH]c2ccccc12)NC(=O)[C@H](CCCNC(=N)N)NC(=O)[C@H](Cc1ccccc1)NC(=O)[C@@H](N)Cc1c[nH]cn1)C(=O)O) [SEQ. ID. NO. 17] | 82.5% |  | 
SYSMEHFRWGKPV [α-MSH, naturally occurring 13-amino acid peptide, α-melanocyte-stimulating hormone] |  |  | less than 80%
